According to patent US7829665B2 (priority 2005, dated 2010):
Where two headings read alike, the source gives them in different places.

What was measured:
[1] = target: T1, full-length NS3/NS4A-2 (HCV NS3 protease) (Hepatitis C virus genotype 1a, UniProt P27958); assay: NS3-NS4 protease assay / NS3 inhibition assay (RETS1 substrate, fluorescence kinetic read); assay type: biochemical
T1 construct: Recombinant E. coli or Baculovirus full-length NS3 was diluted to 3.33 μM with assay buffer; made in house; host or cells: E. coli or baculovirus (BV) expression system
In short: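 Ki values come from IC50 fits corrected via Ki=IC50/(1+[S]/Km), with Km 2.03 μM for E. coli and 1.74 μM for baculovirus full-length NS3. Enzyme (2 or 3 nM NS3, respectively, complexed with NS4A-2) sat with compound, top concentration 50 microM, for 10 min at room temperature. Cleavage of RETS1 (8 μM working solution) was then followed by fluorescence (335/495 nm) over 30 min.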

[2] = test system: HCV sub-genomic replicon in GS4.3 cells (HuH-7 hepatoma cells); assay: Quantitation by ELISA of Neomycin phosphotransferase II (NPTII) in the HCV sub-genomic replicon, GS4.3; assay type: cell-based, hepatitis C virus; conditions: Hepatitis C virus, Huh-7; GS4.3 cells, 72 h incubation, NPTII ELISA; read-out: Replicon EC50
Method: The HCV sub-genomic replicon (1377/NS3-3′, accession No. AJ242652), stably maintained in HuH-7 hepatoma cells, was created by Lohmann et al. Science 285: 110-113 (1999). The replicon-containing cell culture, designated GS4.3, was obtained from Dr. Christoph Seeger of the Institute for Cancer Research, Fox Chase Cancer Center, Philadelphia, Pa.
GS4.3 cells were maintained at 37° C., 5% CO2, in DMEM (Gibco 11965-092) supplemented with L-glutamine 200 mM (100×) (Gibco25030-081), non-essential amino acids (NEAA) (Biowhittaker 13-114E), heat-inactivated (HI) Fetal Bovine Serum (FBS) (Hyclone SH3007.03) and 750 μg/ml geneticin (G418) (Gibco 10131-035). Cells were sub-divided 1:3 or 4 every 2-3 days.
24 h prior to the assay, GS4.3 cells were collected, counted, and plated in 96-well plates (Costar 3585) at 7500 cells/well in 100 μl standard maintenance medium (above) and incubated in the conditions above. To initiate the assay, culture medium was removed, cells were washed once with PBS (Gibco 10010-023) and 90 μl Assay Medium (DMEM, L-glutamine, NEAA, 10% HI FBS, no G418) was added. Inhibitors were made as a 10× stock in Assay Medium, (3-fold dilutions from 10 μM to 56 pM final concentration, final DMSO concentration 1%), 10 μl were added to duplicate wells, plates were rocked to mix, and incubated as above for 72 h.
An NPTII Elisa kit was obtained from AGDIA, Inc. (Compound direct ELISA test system for Neomycin Phosphotransferase II, PSP 73000/4800). Manufacturer's instructions were followed, with some modifications. 10×PEB-1 lysis buffer was made up to include 500 μM PMSF (Sigma P7626, 50 mM stock in isopropanol). After 72 h incubation, cells were washed once with PBS and 150 μl PEB-1 with PMSF was added per well. Plates were agitated vigorously for 15 minutes, room temperature, then frozen at −70° C. Plates were thawed, lysates were mixed thoroughly, and 100 μl were applied to an NPTII Elisa plate. A standard curve was made. Lysate from DMSO-treated control cells was pooled, serially diluted with PEB-1 with PMSF, and applied to duplicate wells of the ELISA plate, in a range of initial lysate amount of 150 ul-2.5 ul. In addition, 100 μl buffer alone was applied in duplicate as a blank. Plates were sealed and gently agitated at room temperature for 2 h. Following capture incubation, the plates were washed 5×300 μl with PBS-T (0.5% Tween-20, PBS-T was supplied in the ELISA kit). For detection, a 1× dilution of enzyme conjugate diluent MRS-2 (5×) was made in PBS-T, into which 1:100 dilutions of enzyme conjugates A and B were added, as per instructions. Plates were resealed, and incubated with agitation, covered, room temperature, for 2 h. The washing was then repeated and 100 μl of room temperature TMB substrate was added. After approximately 30 minutes incubation (room temperature, agitation, covered), the reaction was stopped with 50 μl 3M sulfuric acid. Plates were read at 450 nm on a Molecular Devices Versamax plate reader.
Inhibitor effect was expressed as a percentage of DMSO-treated control signal, and inhibition curves were calculated using a 4-parameter equation: y=A+((B−A)/(1+((C/x)^D))), where C is half-maximal activity or EC50.

[3] = recombinant E. coli or Baculovirus full-length NS3 with NS4A-2, read-out: NS3-NS4 IC50

T1 sequence (P27958 1027-1657): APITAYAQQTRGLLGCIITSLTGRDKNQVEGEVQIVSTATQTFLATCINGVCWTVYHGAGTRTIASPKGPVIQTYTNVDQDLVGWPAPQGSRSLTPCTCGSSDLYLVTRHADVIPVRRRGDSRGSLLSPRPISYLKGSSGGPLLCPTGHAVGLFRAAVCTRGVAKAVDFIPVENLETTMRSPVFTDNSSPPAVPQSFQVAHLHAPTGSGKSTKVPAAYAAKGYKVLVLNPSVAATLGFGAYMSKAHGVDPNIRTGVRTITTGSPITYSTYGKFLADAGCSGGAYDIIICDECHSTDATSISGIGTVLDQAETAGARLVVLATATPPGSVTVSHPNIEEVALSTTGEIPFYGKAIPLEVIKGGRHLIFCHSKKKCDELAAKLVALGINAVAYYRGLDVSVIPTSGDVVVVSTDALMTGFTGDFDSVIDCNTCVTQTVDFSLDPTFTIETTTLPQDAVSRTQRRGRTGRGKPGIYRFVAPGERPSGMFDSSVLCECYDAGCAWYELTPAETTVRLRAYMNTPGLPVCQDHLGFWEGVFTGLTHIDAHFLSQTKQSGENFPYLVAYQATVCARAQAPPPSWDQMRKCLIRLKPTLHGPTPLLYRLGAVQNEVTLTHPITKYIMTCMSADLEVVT

Compound	IC50 [1, 3]	EC50 [2]	IC50 [1]
O=C1N[C@]2(C(=O)NS(=O)(=O)C3CC3)C[C@H]2/C=C\CCCCC[C@H](NCc2cc(F)cc(F)c2)C(=O)N2C[C@H](OC(=O)N3Cc4cccc(F)c4C3)C[C@@H]12 [Compound 903]	< 100 nM	< 100 nM	–
CC(C)(C)OC(=O)N[C@H]1CCOCC/C=C\[C@@H]2C[C@@]2(C(=O)O)NC(=O)[C@@H]2C[C@@H](OC(=O)N3Cc4cccc(F)c4C3)CN2C1=O [Compound 1026]	< 100 nM	< 10000 nM	–
CC(C)(C)OC(=O)N[C@H]1CCCCC/C=C\[C@@H]2C[C@@]2(C(=O)N[C@H]2CCS(=O)(=O)C2)NC(=O)[C@@H]2C[C@@H](OC(=O)N3Cc4cccc(F)c4C3)CN2C1=O [Compound 634]	< 1000 nM	< 10000 nM	–
CN(C(=O)[C@@]12C[C@H]1/C=C\CCCCC[C@H](NC(=O)OC(C)(C)C)C(=O)N1C[C@H](OC(=O)N3Cc4cccc(F)c4C3)C[C@H]1C(=O)N2)S(=O)(=O)C1CC1 [Compound 264]	< 10000 nM	> 10000 nM	–
O=C(N[C@H](C(=O)N[C@H]1CCCCC/C=C\[C@@H]2C[C@@]2(C(=O)NS(=O)(=O)C2CC2)NC(=O)[C@@H]2C[C@@H](OC(=O)N3Cc4cccc(Cl)c4C3)CN2C1=O)C1CCCCC1)c1cnccn1 [Compound 263]	< 100 nM	< 100 nM	–
CC(C)(C)OC(=O)N[C@H]1COCCC/C=C\[C@@H]2C[C@@]2(C(=O)NS(=O)(=O)C2CC2)NC(=O)[C@@H]2C[C@@H](OC(=O)N3Cc4cccc(F)c4C3)CN2C1=O [Compound 1020, (2R,6S,13aS,14aR,16aS,Z)-6-(tert-butoxycarbonylamino)-14a-(cyclopropylsulfonylcarbamoyl)-5,16-dioxo-2,3,5,6,7,9,10,11,13a,14,14a,15,16,16a-tetradecahydro-1H-cyclopropa(i)pyrrolo[1,2-e][1,5,8]oxadiazacyclopentadecin-2-yl 4-fluoroisoindoline-2-carboxylate]	–	< 100 nM	< 100 nM
CN1CCN(c2ccc3c(c2)CN(C(=O)O[C@@H]2C[C@H]4C(=O)N[C@]5(C(=O)O)C[C@H]5/C=C\CCCCC[C@H](NC(=O)OC(C)(C)C)C(=O)N4C2)C3)CC1 [Compound 175]	< 100 nM	> 10000 nM	–
CCCNC(=O)[C@@]12C[C@H]1/C=C\CCCCC[C@H](NCc1ccc(F)c(F)c1)C(=O)N1C[C@H](OC(=O)N3Cc4cccc(F)c4C3)C[C@H]1C(=O)N2 [Compound 625]	< 10000 nM	< 10000 nM	–
O=C(N[C@H]1CCCCC/C=C\[C@@H]2C[C@@]2(C(=O)O)NC(=O)[C@@H]2C[C@@H](OC(=O)N3Cc4cccc(F)c4C3)CN2C1=O)OC1CCCC1 [Compound 116]	< 100 nM	< 10000 nM	–
O=C(N[C@H]1CCCCC/C=C\[C@@H]2C[C@@]2(C(=O)NS(=O)(=O)c2cc(Cl)sc2Cl)NC(=O)[C@@H]2C[C@@H](OC(=O)N3Cc4cccc(F)c4C3)CN2C1=O)OC1CCCC1 [Compound 173]	< 100 nM	< 100 nM	–
CC(C)(C)OC(=O)N[C@H]1CCCCC/C=C\[C@@H]2C[C@@]2(C(=O)O)NC(=O)[C@@H]2C[C@@H](OC(=O)N3Cc4ccc(OCCNC5CC5)cc4C3)CN2C1=O [Compound 131]	< 100 nM	< 10000 nM	–
CC(C)(C)OC(=O)N[C@H]1CCCCC/C=C\[C@@H]2C[C@@]2(C(=O)NCCF)NC(=O)[C@@H]2C[C@@H](OC(=O)N3Cc4cccc(F)c4C3)CN2C1=O [Compound 611]	< 1000 nM	< 10000 nM	–
O=C(N[C@H]1CCCCC/C=C\[C@@H]2C[C@@]2(C(=O)NS(=O)(=O)N2CC(F)(F)C2)NC(=O)C2C[C@@H](OC(=O)N3Cc4cccc(F)c4C3)CN2C1=O)OC1CCCC1 (stereo partly shown) [Compound 229]	< 100 nM	< 1000 nM	–
CC(C)(C)OC(=O)N[C@H]1CCCOC/C=C\[C@@H]2C[C@@]2(C(=O)NCC2CC2)NC(=O)[C@@H]2C[C@@H](OC(=O)N3Cc4cccc(F)c4C3)CN2C1=O [Compound 1019]	< 100 nM	< 1000 nM	–
CN(C)S(=O)(=O)NC(=O)[C@@]12C[C@H]1/C=C\CCCCC[C@H](NC(=O)OC(C)(C)C)C(=O)N1C[C@H](OC(=O)N3Cc4cccc(Cl)c4C3)C[C@H]1C(=O)N2 [Compound 114]	< 100 nM	< 100 nM	–
CNc1c(NC(=O)[C@@]23C[C@H]2/C=C\CCCCC[C@H](NC(=O)OC(C)(C)C)C(=O)N2C[C@H](OC(=O)N4Cc5cccc(F)c5C4)C[C@H]2C(=O)N3)c(=O)c1=O [Compound 646]	< 1000 nM	> 10000 nM	–
CC(C)(C)OC(=O)N[C@H]1CCCCC/C=C\[C@@H]2C[C@@]2(C(=O)NS(=O)(=O)C2CC2)NC(=O)[C@@H]2C[C@@H](OC(=O)N3Cc4cccc(C(F)(F)F)c4C3)CN2C1=O [Compound 170]	< 100 nM	< 100 nM	–
O=C(CCO)N[C@H]1CCCCC/C=C\[C@@H]2C[C@@]2(C(=O)NS(=O)(=O)C2CC2)NC(=O)[C@@H]2C[C@@H](OC(=O)N3Cc4cccc(F)c4C3)CN2C1=O [Compound 251]	< 100 nM	< 10000 nM	–
O=C1N[C@]2(C(=O)NS(=O)(=O)C3CC3)C[C@H]2/C=C\CCCCC[C@H](NCc2cccc(C(F)(F)F)c2)C(=O)N2C[C@H](OC(=O)N3Cc4cccc(F)c4C3)C[C@@H]12 [Compound 901, (1S,4R,6S,14S,18R)-14-(3-(trifluoromethyl)benzylamino)-4-(cyclopropanesulfonyl)aminocarbonyl-18-(4-fluoro-1,3-dihydro-isoindole-2-carbonyloxyl)-2,15-dioxo-3,16-diaza-tricyclo[14.3.0.0^4,6]nonadec-7-ene]	< 100 nM	< 100 nM	–
CN(C)S(=O)(=O)NC(=O)[C@@]12C[C@H]1/C=C\CCCCC[C@H](NC(=O)OC(C)(C)C)C(=O)N1C[C@H](OC(=O)N3Cc4c(Cl)ccc(Cl)c4C3)C[C@H]1C(=O)N2 [Compound 206]	< 100 nM	< 100 nM	–
CC(C)(C)OC(=O)N[C@H]1CCCCC/C=C\[C@@H]2C[C@@]2(C(=O)NS(=O)(=O)N2CCOCC2)NC(=O)[C@@H]2C[C@@H](OC(=O)N3Cc4cccc(F)c4C3)CN2C1=O [Compound 209]	< 100 nM	< 100 nM	–
O=C(N[C@H]1CCC(F)(F)CC/C=C\[C@@H]2C[C@@]2(C(=O)NS(=O)(=O)C2CC2)NC(=O)[C@@H]2C[C@@H](OC(=O)N3Cc4cccc(F)c4C3)CN2C1=O)OC1CCCC1 [Compound 1004]	< 100 nM	< 100 nM	–
O=C1N[C@]2(C(=O)NS(=O)(=O)C3CC3)C[C@H]2/C=C\CCCCC[C@H](NCC2CC2)C(=O)N2C[C@H](OC(=O)N3Cc4cccc(F)c4C3)C[C@@H]12 [Compound 910]	< 100 nM	< 1000 nM	–
CC(C)(C)OC(=O)N[C@H]1COCCC/C=C\[C@@H]2C[C@@]2(C(=O)O)NC(=O)[C@@H]2C[C@@H](OC(=O)N3Cc4cccc(Cl)c4C3)CN2C1=O [Compound 1024]	< 100 nM	< 100 nM	–
O=C(N[C@H]1CCCCC/C=C\[C@@H]2C[C@@]2(C(=O)NS(=O)(=O)C2CC2)NC(=O)[C@@H]2C[C@@H](OC(=O)N3Cc4ccncc4C3)CN2C1=O)OC1CCCC1 [Compound 155]	< 100 nM	< 1000 nM	–
Cc1sc(N[C@H]2CCCCC/C=C\[C@@H]3C[C@@]3(C(=O)NS(=O)(=O)C3CC3)NC(=O)[C@@H]3C[C@@H](OC(=O)N4Cc5cccc(F)c5C4)CN3C2=O)nc1-c1ccccc1 [Compound 928]	< 100 nM	< 100 nM	–
